Data taken from patent US20090004683A1, “Indicator Agent for Noninflammatory Stress Response and Use Thereof” (priority 2004, published 2009).

Experiments:
[1] = test system: IL-18; assay: Plasma IL-18 level in restraint stress mice (ELISA); type: in vivo, mouse; details: given i.p. during restraint (Ac-YVAD-CHO 200 μM/50 μl, Z-FA-fmk 100 μM/50 μl, SB-203580 100 μg, SOD-1 20 U, DPI 30 μg)
Method: (§1) For restraint stress, each mouse was kept in a restrainer (a round plastic tube 27 mm in diameter) for 1, 3 or 6 hours, and IL-18 levels were measured. Regarding the analysis of IL-6, each mouse was restrained as described above, and then housed in the starting cage for 6 hours, after which a measurement was performed.
(§2) After restraint, each mouse was anesthetized with diethyl ether, and blood was drawn into an EDTA-containing tube. Plasma was separated by centrifugation at 4° C. and 10000×g for 10 minutes, and stored at −80° C. IL-18 and IL-6 were analyzed by ELISA using Quantikine™ immunoassay kit (R&D Systems) and OptEIA™ (BD-Pharmingen), respectively.
(§3) The anti-ACTH antiserum (50 μl, 1:1), dexamethasone (1 ng/50 μl PBS(−)) or the anti-IL-18 antibody (50 μl, 1:1) was administered intraperitoneally to each mouse; after 10 minutes elapsed, the animal was kept in a restraint tube for 6 hours. Synthetic ACTH (250 μg/50 μl PBS(−)) was injected to the left leg; after 6 hours elapsed, the mice were subjected to the experiment.
(§4) Each mouse was kept in a restrainer for 1 hour, and Ac-YVAD-CHO (200 μM/50 μl PBS(−)), Z-FA-fmk (100 μM/50 μl PBS(−)) and SB-203580 (100 μg/50 μl PBS(−) per mouse) were administered intraperitoneally. 1 and 3 hours after the start of restraint, SOD-1 (20 U) and DPI (30 μg) were administered intraperitoneally to the mouse, and samples were analyzed by Western blotting.

[2] = test system: IL-18; assay: IL-18 in plasma and adrenal after administration of synthetic ACTH; type: in vivo, mouse; details: 250 μg injected to the left leg, after 6 hours, no restraint
Method: as §2, §3

[3] = test system: caspase-1; assay: Procaspase-1 in the adrenal after ACTH administration (Western blotting); type: in vivo, mouse; details: FIG. 2A lane 2
Method: as §3
(§5) Western blot analysis of IL-18 and phosphorylated P38MAP kinase in adrenal tissue was performed as described below. The adrenal tissue was homogenized in an immunoprecipitation (IP) buffer solution (50 mM Tris pH 7.4, 150 mM NaCl, 0.5% NP-40 and 0.5% sodium deoxycholate) containing a protease inhibitor mixture (manufactured by Roche Diagnostics) using a Polytron homogenizer. […] The aforementioned membrane was incubated with an antibody (IL-18, phosphorylated (Thr180/Tyr182) P38 MAP kinase, caspase-1 or caspase-11), and the reacted protein was detected using an ECL plus system (manufactured by Amersham biosciences). Procaspase-11 and activated P38 MAP kinase were quantified using a Science Lab 99 image analysis system (manufactured by Fujifilm).

[4] = test system: Primary culture human skin keratinocytes; assay: IL-18 release from keratinocytes with paraquat stimulation; type: cell-based
Method: Primary culture human skin keratinocytes (keratinocytes) were cultured in a basal medium for keratinocytes contained in petri dishes for cell culture 6 cm in diameter at 1.0-2.0×10^6/dish. This was cultured in the aforementioned medium containing 1 μM of paraquat, which is an active oxygen generator, for 15 minutes, after which the medium was exchanged with a paraquat-free medium, and the cells were further cultured for 1 hour, after which the medium was collected, and the concentration of IL-18 protein in the medium was measured.

[5] = test system: Primary culture human skin keratinocytes; assay: IL-18 release from keratinocytes with UV-B ray irradiation; type: cell-based; details: 100 mJ UV-B, SOD 1-20 U/ml or water-soluble vitamin E 100 nM-10 mM/ml
Method: Primary culture human skin keratinocytes (keratinocytes: purchased from CAMBREX Company) were cultured in a basal medium for keratinocytes contained in petri dishes for cell culture 6 cm in diameter at 1.0-2.0×10^6/dish. This was irradiated with 100 mJ of ultraviolet B rays (UV-B rays), after which the cells were cultured for 1 hour, after which the medium was collected, and the concentration of IL-18 protein in the medium was measured. Also, after the UV-B ray treatment, the cells were cultured in a medium containing SOD (1, 2.5, 5, 10, 20 U/ml), which is an active oxygen eliminator, or water-soluble vitamin E (100 nM, 1, 2.5, 5, 10 mM/ml), and the concentration of IL-18 protein in the medium was measured. In the keratinocytes, the activation and release of IL-18 by the active oxygen molecular species were observed. Furthermore, these were suppressed by SOD, which is an active oxygen eliminator, or by vitamin E, which neutralizes active oxygen, dose-dependently (FIGS. 7C and 7D).

[6] = test system: Brain microglia; assay: IL-18 release from microglia with paraquat stimulation; type: cell-based, mouse
Method: Brain microglia isolated from the mouse neonatal brain by the method of Hassan et al. (Hassan N F, Rifat S, Campbell D E, McCawley L J, Douglas S D. J. Leukoc Biol. 1991 July; 50(1):86-92) were cultured at 1.5-2.0×10^6/ml. This was cultured in Dulbecco's minimum essential medium containing 100 nM of paraquat, which is an active oxygen generator, for 1 hour, after which the medium was exchanged with a paraquat-free medium. After further cultivation for 3 hours, the medium was collected, and the concentration of IL-18 protein in the medium was measured.

[7] = test system: Brain astrocytes; assay: IL-18 release from astrocytes with paraquat stimulation; type: cell-based, mouse
Method: Brain astrocytes isolated from the mouse neonatal brain by the method of Yang et al. (Yang P, Hernandez M R. Brain Res Brain Res Protoc. 2003 October; 12(2):67-76) were prepared at 1.5-2.0×10^6/ml. This was cultured in Dulbecco's minimum essential medium containing 100 nM of paraquat, which is an active oxygen generator, for 1 hour, after which the medium was exchanged with a paraquat-free medium. The cells were further cultured for 3 hours, after which the medium was collected, and the concentration of IL-18 protein in the medium was measured.

[8] = test system: Abdominal macrophages; assay: IL-18 release from macrophages with paraquat stimulation; type: cell-based, mouse; details: 100 nM paraquat 15 minutes, SOD 1-20 U/ml
Method: Abdominal macrophages isolated from mice by the method of Hamilton et al. (Hamilton T A, Weiel J E, Adams D O., J. Immunol. 1984 May; 132(5):2285-90) were cultured in Dulbecco's minimum essential medium at 1.0-2.0×10^5/dish. The medium was exchanged with the aforementioned medium containing 100 nM of paraquat, which is an active oxygen generator, and the cells were cultured for 15 minutes, after which the medium was exchanged with a paraquat-free medium, and the cells were further cultured for 3 hours, after which the medium was collected, and the concentration of IL-18 protein in the medium was measured.

[9] = test system: Synovial membrane tissue; assay: IL-18 release from synovial membrane tissue with paraquat stimulation; type: cell-based, human; details: synovial membrane tissue of articular rheumatism patient, 100 nM paraquat 15 minutes; SOD 1-20 U/ml
Method: Synovial membrane tissue collected from the articular synovial membrane at a lesion site of an articular rheumatism patient was subjected to tissue culture in an RPMI-1640 medium containing 10% fetal bovine serum by the method of Tanaka et al. (Tanaka M, Harigai M, Kawaguchi Y, Ohta S, Sugiura T, Takagi K, Ohsako-Higami S, Fukasawa C, Hara M, Kamatani N., J. Rheumatol. 2001 August; 28(8):1779-87). The medium was exchanged with the aforementioned medium containing 100 nM of paraquat, which is an active oxygen generator, and the cells were cultured for 15 minutes, after which the medium was exchanged with a paraquat-free medium, and the cells were further cultured for 1 hour, after which the medium was collected, and the concentration of IL-18 protein in the medium was measured.

[10] = test system: Primary culture human renal proximal tubular epithelial cells; assay: IL-18 release from renal tubular epithelial cells with paraquat stimulation; type: cell-based
Method: Primary culture human renal proximal tubular epithelial cells (purchased from CAMBREX Company) were cultured in a basal medium for renal tubular cells: contents 10 μg/ml hEGF (recombinant human epithelial cell growth factor) 0.5 ml, 5 mg/ml insulin 0.5 ml, 0.5 mg/ml hydrocortisone 0.5 ml, FBS (fetal bovine serum) 2.5 ml, 0.5 mg/ml epinephrine 0.5 ml, 6.5 μg/ml triiodothyronine 0.5 ml, 10 mg/ml transferrin 0.5 ml, 50 mg/ml gentamycin, 50 μg/ml amphotericin-B 0.5 ml), in petri dishes for cell culture 6 cm in diameter at 1.0-2.0×10^6/dish. This was cultured in the aforementioned medium containing 100 nM of paraquat, which is an active oxygen generator, for 15 minutes, after which the medium was exchanged with the same but paraquat-free medium. After the cells were further cultured for 1 hour, the medium was collected, and the concentration of IL-18 protein in the medium was measured.

[11] = biological target: T1, caspase-1 (Mus musculus, UniProt P29452); assay: Caspase-1 activity in the adrenal of restraint stress mice (Ac-YVAD-MCA fluorescent substrate); type: in vivo; details: given i.p. during restraint
T1 construct: from tissue; host or cells: mouse adrenal (homogenate)
T1 sequence (P29452 119-296 limits assumed): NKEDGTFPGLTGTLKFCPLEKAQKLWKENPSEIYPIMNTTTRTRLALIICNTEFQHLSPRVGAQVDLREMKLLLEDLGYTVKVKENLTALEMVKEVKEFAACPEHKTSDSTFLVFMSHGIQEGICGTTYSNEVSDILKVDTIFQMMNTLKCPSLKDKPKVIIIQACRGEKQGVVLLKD
T1 sequence (P29452 315-402 limits assumed): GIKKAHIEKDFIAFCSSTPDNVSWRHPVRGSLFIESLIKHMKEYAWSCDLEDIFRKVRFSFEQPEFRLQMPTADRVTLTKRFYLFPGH
Method: as §4
Caspase-1 activity in the adrenal was measured using a caspase assay kit (manufactured by BD-Pharmingen). Describing briefly, a homogenate of adrenal tissue was incubated with Ac-YVAD-MCA (acetyl-L-tyrosyl-L-valyl-L-alanyl-L-aspartic acid 4-methyl-coumaryl-7-amide), which is a fluorescent substrate for caspase-1, and the MCA leaving from the aforementioned substrate was measured using a fluorescence plate reader (excitation wavelength 380 nm, irradiation wavelength 420-460 nm).

[12] = test system: phosphorylated (Thr180/Tyr182) P38 MAP kinase; assay: Phosphorylated P38MAP kinase in the adrenal of restraint stress mice (Western blotting); type: in vivo, mouse; details: Western blotting, FIG. 3D
Method: as §4
Western blot analysis of IL-18 and phosphorylated P38MAP kinase in adrenal tissue was performed as described below. The adrenal tissue was homogenized in an immunoprecipitation (IP) buffer solution (50 mM Tris pH 7.4, 150 mM NaCl, 0.5% NP-40 and 0.5% sodium deoxycholate) containing a protease inhibitor mixture (manufactured by Roche Diagnostics) using a Polytron homogenizer. The homogenate obtained (100 μg protein) was pre-clarified using protein A/G agarose (Exalpha Biologicals, Inc.), incubated with the anti-mouse IL-18 monoclonal antibody or the anti-phosphorylated (Thr180/Tyr182) P38 MAP kinase antibody and protein A/G agarose (50 μl), and centrifuged (at 13000×g for 25 minutes, 4° C.). The precipitate was boiled, and the adrenal protein was recovered, electrophoresed in 10-20% SDS-polyacrylamide gradient gel, and electrically transferred to a Hybond ECL (manufactured by Amersham) nitrocellulose membrane. The aforementioned membrane was incubated with an antibody (IL-18, phosphorylated (Thr180/Tyr182) P38 MAP kinase, caspase-1 or caspase-11), and the reacted protein was detected using an ECL plus system (manufactured by Amersham biosciences). Procaspase-11 and activated P38 MAP kinase were quantified using a Science Lab 99 image analysis system (manufactured by Fujifilm).

[13] = test system: phosphorylated P38MAP kinase; assay: Immunohistochemistry of phosphorylated P38MAP kinase in adrenal cortex of stress-loaded mice; type: in vivo, mouse; details: FIG. 3F
Method: The adrenal was fixed in formalin, embedded in paraffin, and cut into 4-μm sections. The aforementioned tissue sections were incubated with an antibody (P38 MAP kinase, caspase-11, caspase-1 (these three were diluted 200 fold) or IL-18 (diluted 400 fold)). Using a horseradish peroxidase-conjugated secondary antibody (manufactured by Santa Cruz) and diaminobenzidin (DBA), color development was performed. For control, sections without the primary antibody and sections derived from a mouse without stress were used.

[14] = test system: IL-18 precursor; assay: IL-18 (precursor) level in the adrenal of restraint stress mice; type: in vivo, mouse; details: given i.p. during restraint
Method: as §1, §3, §4
Western blot analysis of IL-18 and phosphorylated P38MAP kinase in adrenal tissue was performed as described below. […] Procaspase-11 and activated P38 MAP kinase were quantified using a Science Lab 99 image analysis system (manufactured by Fujifilm).

[15] = test system: IL-6; assay: Plasma IL-6 level in stress-loaded wild type mice (ELISA); type: in vivo, mouse; details: stress-loaded WT mice; FIG. 5B
Method: as §1, §2
Using IL-18-deficient mice, the relationship between IL-6, which is another stress-related cytokine, and IL-18, was examined. Without stress, IL-6 was undetectable in WT and IL-18 KO, but after 3 hours of stress loading, the IL-6 level was 230 pg/ml in WT and 25 pg/ml in IL-18 KO (FIG. 5A). After liberation from the stress, plasma IL-6 was kept at about 80 pg/ml in WT, but decreased to 5 pg/ml in IL-18 KO (FIG. 5A). Treatment with YVAD-CHO, SOD and anti-IL-18 antibody 70% inhibited the stress-induced increase in plasma IL-6 level in WT (FIG. 5B).

[16] = test system: procaspase-11; assay: Procaspase-11 protein in the adrenal of restraint stress mice (Western blotting); type: in vivo, mouse; details: given i.p. during restraint
Method: as §4, §5

[17] = test system: glyoma cell line C6; details: cited from earlier work

c1ccc2c(c1)[I+]c1ccccc1-2 [DPI, Diphenyleneiodonium chloride]
stress-induced increase in plasma IL-18 level [1]: suppressed

ACTH: Synthetic ACTH (1-24 amino acids) purchased from Peninsula Laboratories Inc. (SYSMEHFRWGKPVGKKRRPVKVYP; Corticotropin; UniProt P01189 138-161, looked up, fragment)
plasma IL-18 level after ACTH administration ([2]; FIG. 1D): rose, but its degree was lower than that with stress loading | IL-18 level in the adrenal after ACTH administration ([2]; FIG. 1E): rose to the same extent as in the case of stress loading | induction of caspase-1 in the adrenal [3]: induced

vitamin E
activation and release of IL-18 into the medium [4]: suppressed | activation and release of IL-18 into the medium [5]: suppressed | activation and release of IL-18 into the medium [6]: suppressed | activation and release of IL-18 into the medium [7]: suppressed | activation and release of IL-18 into the medium [8]: suppressed | activation and release of IL-18 into the medium [9]: suppressed | activation and release of IL-18 into the medium [10]: suppressed

CC(NC(=O)[C@H](Cc1ccccc1)NC(=O)OCc1ccccc1)C(=O)CF (some centres unmarked) [Z-FA-fmk]
stress-induced increase in plasma IL-18 level [1]: suppressed | stress-induced increase in caspase-1 activity in the adrenal [11]: suppressed | phosphorylation of P38MAP kinase in the adrenal [12]: Neither YVAD-CHO nor Z-FA-fmk influenced | accumulation of phosphorylated P38MAP kinase in adrenal cortex [13]: did not influence

CC(=O)N[C@@H](Cc1ccc(O)cc1)C(=O)N[C@H](C(=O)N[C@@H](C)C(=O)N[C@H](C=O)CC(=O)O)C(C)C [YVAD-CHO, Ac-YVAD-CHO]
stress-induced increase in plasma IL-18 level [1]: effectively inhibited | IL-18 precursor protein level in the adrenal [14]: did not inhibit | stress-induced increase in caspase-1 activity in the adrenal [11]: suppressed | phosphorylation of P38MAP kinase in the adrenal [12]: Neither YVAD-CHO nor Z-FA-fmk influenced | accumulation of phosphorylated P38MAP kinase in adrenal cortex [13]: did not influence | inhibition of the stress-induced increase in plasma IL-6 level [15]: 70%

C[S+]([O-])c1ccc(-c2nc(-c3ccncc3)c(-c3ccc(F)cc3)[nH]2)cc1 (centres unmarked) [SB203580]
stress-induced increase in plasma IL-18 level [1]: lower than those in control mice | stress-induced increase in caspase-1 activity in the adrenal [11]: lower than those in control mice | stress-induced increase in procaspase-11 protein [16]: inhibited | activation of caspase-1 subsequent to LPS [17]: suppressed | induction of caspase-11 mRNA by LPS [17]: suppressed
